Assay [1] concerns peripheral blood monocytes. Nature of the assay: Ex vivo uptake of fluorescent Aβ42 by peripheral blood monocytes from adjuvanted mice. Format: in vivo, C57BL/6 mice. As to conditions: i.m. injection; AS01B mouse full dose, CRX601 2 μg dose. The source says: To begin to examine the function of the increase of monocytes in the peripheral blood, we examined the capacity of those monocytes to uptake Aβ42 in a test tube. In order to measure that phagocytic activity, we have used fluorescent HiLyteFluo Aβ42 (Anaspec Inc).
We examined the capacity of monocytes to uptake Aβ42 in a test tube. In order to measure that phagocytic activity we have used fluorescent HiLyteFluo Aβ42 (Anaspec Inc).
Preparation of cells: Peripheral blood was drawn from C57BL/6 mice via cardiac puncture with lithium-heparin as anticoagulant, 24-Hour after injection of the adjuvants used herein. Red blood cell lysis was performed twice on pooled blood with Ammonium Chloride-based Buffer (Sigma, Steinheim, Germany) and cells were counted with the EasyCount™ System (Immunicon). […]
Samples were acquired on a flow cytometer (BD FACSCanto II) and data analyzed with the FACSDiva software (BD Biosciences).
Monocytes were identified by their Side/Forward scatter properties, excluding debris and gated as CD3-/CD45R/B220-/Ly-6G-/NK1.1-(Lineage-)/CD11b+ cells. Aβ uptake was assessed by reporting the percentage and Mean Fluorescence Intensity (GeoMean) of positive HiLyte fluor488 Aβ1-42 cells among gated monocytes.

Another assay deals with monomeric Aβ. The assay is described as follows: Immunoblot of monomeric Aβ in brain protein fractions. Format: in vivo, mice. As to conditions: anti Aβ1-16 antibody, vs PBS. As to the method:
Proteins from hemi-forebrains were extracted using a modified method of the procedure published by Lesné et al (Lesne et al., 2006). All manipulations were done on ice to minimize protein degradation. One hemi-forebrain was placed in a 1 ml syringe with a 20 G needle. 500 l of buffer A (50 mM Tris-HCl pH 7.6, 0.01% NP-40, 150 mM NaCl, 2 mM EDTA, 0.1% SDS, 1 mM phenylmethylsulfonyl fluoride (PMSF), protease inhibitor cocktail) were added and 10 up and down were made to homogenize the tissue, followed by a 5 minutes centrifugation at 3 000 RPM at 4° C. The supernatant (extracellular proteins enriched fraction) was then collected and frozen at −80° C. […] Protein concentration of each fraction was determined using the Quantipro BCA assay kit (Sigma) according to the manufacturer protocol.
For total Aβ detection, 10-30 μg of extracellular, cytoplasmic and membrane protein fractions were separated on a precast 10-20% SDS polyacrylamide Tris-Tricine gel (Bio-Rad). Separated proteins were then transferred onto polyvinylidene fluoride (PVDF) membranes (PerkinElmer Life and Analytical Sciences) and detected by Western blotting. […]
Quantification was done by determining integrative density of the bands using a gel imaging system (scanner Agfa Arcus II; NIHImage J software version 1.32j) and background values were removed. […] Results are expressed as mean±SEM. […]

In the case of `CCCCCCCCCCC[C@H](CC(=O)N[C@H]1[C@H](OC[C@H](NC(=O)C[C@@H](CCCCCCCCCCC)OCCCCCCCCCC)C(=O)O)O[C@H](CO)[C@@H](OP(=O)(O)O)[C@@H]1OC(=O)C[C@@H](CCCCCCCCCCC)OCCCCCCCCCC)OCCCCCCCCCC` [CRX601], the “Aβ42 uptake by monocytes compared to PBS group” value in assay [1] is “higher amount”.

In the case of “3-O-desacyl-4′-monophosphoryl lipid A [3D MPL]”, the “monomeric Aβ in extra-cellular enriched fractions from brains” value with monomeric Aβ is recorded as “reduction”.
